Experimental data reported in patent US20190192458A1, “THERAPEUTIC/PROPHYLACTIC AGENT FOR GRAFT-VERSUS-HOST DISEASE, FIBROCYTE INVASION INHIBITOR, AND INHIBITOR AGAINST TEAR REDUCTION AND REDUCTION IN GOBLET CELLS” (KEIO UNIVERSITY, priority 2016, published 2019).

Test system: cGVHD model mice (B10.D2 to BALB/c bone marrow transplantation)
Assay: Survival and change in weight of PBA-treated allogeneic bone marrow transplantation recipient mice
Assay type: in vivo, mouse
Details: PBA 10 mg/kg i.p. once daily Day 10 to Day 27 after allogeneic bone marrow transplantation
Experimental: Bone marrow transplantation was performed on model mice of cGVHD (Zhang Y, McCormick L L, Desai S R, Wu C, Gilliam A C, Murine Sclerodermatous Graft-Versus-Host Disease, a Model for Human Scleroderma: Cutaneous Cytokines, Chemokines, and Immune Cell Activation. The Journal of Immunology, 2002; 168: 3088-3098). When a donor was a B10.D2 mouse and a recipient was a BALB/c mouse, bone marrow transplantation was allogeneic, producing a model mouse of cGVHD. […] Recipients were irradiated at 700 cGy before bone marrow transplantation to perform lethal irradiation with a Gammacel 137 Cs source (Hitachi Medical Corp.). The recipient mice were each administered via tail vein with a suspension containing 1×10^6 donor bone marrow cells and 2×10^6 donor spleen cells.
Bone marrow transplantation was performed as described in the above section “Bone marrow transplantation,” and the resulting allogeneic bone marrow transplantation recipient mice were divided into two groups. One group was treated with intraperitoneal injection of PBA (10 mg/kg) (Aldrich) while the other was treated with intraperitoneal injection of a solvent vehicle⋅phosphate buffered saline (PBS) (pH 7.4). […]
Statistical significance was determined by the Mann-Whitney U test (which tests difference between two groups that have no correspondence). […]

`O=C(O)CCCc1ccccc1` [PBA, 4-phenyl-n-butyric acid] was tested, and the “% survival” value (vs vehicle (PBS), FIG. 2A, n=14, P<0.05) was “higher survival percentage” and the change in weight (vs vehicle, FIG. 2B, n=10, P<0.001) was “the vehicle-treated mouse group showed larger weight loss as compared with the PBA-treated mouse group”.
